Test systems include 786-0 renal; CAKI-1 renal; EKVX NSCLC; HS 578T breast; M14 melanoma; MALME-3M melanoma; MDA-N; OVCAR-5 ovarian; RXF 393 renal; SN12C renal; SNB-19 CNS; UO-31 renal.
What all share (test): NCI anticancer screen, dose series, 48 h

Each structure is given as a SMILES string.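 Following 48 hours of exposure in 96-well plates, responses at five concentrations were used to interpolate endpoints linearly. TGI is the concentration that stops growth completely.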

Consider `O=C1c2cc(CCl)sc2C(=O)c2ccsc21`, for which the TGI in the assay with 786-0 renal is 2.88 µM; in the assay with CAKI-1 renal, 3.09 µM; with EKVX NSCLC, 2.74 µM; with HS 578T breast it was 0.498 µM; in the assay on M14 melanoma, 0.0462 µM; in the assay with MALME-3M melanoma, 0.0781 µM. The TGI in the assay on MDA-N came out at 0.0343 µM; with OVCAR-5 ovarian it was 3.31 µM; with RXF 393 renal, 0.883 µM; in the assay with SN12C renal, 0.842 µM; in the assay with SNB-19 CNS, 0.527 µM; with UO-31 renal, 0.962 µM.
For `COC/C=C\[C@@]1(O)CCCC[C@@H]1CC(OC)OC`, the TGI with 786-0 renal, in the assay on CAKI-1 renal, with EKVX NSCLC, in the assay on HS 578T breast, in the assay on M14 melanoma and in the assay with MALME-3M melanoma was greater than 100 µM in each case. Moreover, the TGI in the assay with MDA-N is greater than 100 µM; in the assay with OVCAR-5 ovarian it was greater than 100 µM; with RXF 393 renal, greater than 92.1 µM; with SN12C renal it was 43.7 µM; in the assay with SNB-19 CNS it was greater than 100 µM; with UO-31 renal it was greater than 96.6 µM.
`Nc1c(C(=O)c2ccccc2)[nH]c(NCc2ccccc2)c1C(=S)Nc1ccccc1`: the TGI in the assay with 786-0 renal, in the assay on CAKI-1 renal, in the assay on EKVX NSCLC, in the assay with HS 578T breast, with M14 melanoma and with MALME-3M melanoma was greater than 100 µM throughout. Further, the TGI in the assay with MDA-N, with OVCAR-5 ovarian, in the assay with RXF 393 renal, in the assay with SN12C renal, in the assay on SNB-19 CNS and in the assay with UO-31 renal was greater than 100 µM throughout.
As for `O/N=C\c1cc(O)c(O)c(/C=N/O)c1`, the TGI in the assay with CAKI-1 renal, in the assay on EKVX NSCLC, with HS 578T breast, in the assay with M14 melanoma, with MALME-3M melanoma and in the assay on MDA-N was greater than 100 µM in each case. In addition, the TGI in the assay on OVCAR-5 ovarian, in the assay with RXF 393 renal, in the assay with SN12C renal, in the assay on SNB-19 CNS and in the assay with UO-31 renal was greater than 100 µM throughout.
`COC(=O)CCCCC/C(=C\C(=O)C(Cl)(Cl)Cl)OC`: the TGI in the assay with 786-0 renal was 68.5 µM; with CAKI-1 renal it was greater than 100 µM; with EKVX NSCLC, 56.8 µM; with HS 578T breast it was 97.1 µM; in the assay with M14 melanoma, greater than 100 µM; with MALME-3M melanoma, 65.2 µM. For the same compound, the TGI in the assay on MDA-N was 71.3 µM; with OVCAR-5 ovarian, greater than 100 µM; with RXF 393 renal, 41.1 µM; in the assay with SN12C renal, greater than 100 µM; in the assay with SNB-19 CNS it was greater than 100 µM; in the assay on UO-31 renal, greater than 100 µM.
Consider `CCC(=O)NCCc1c[nH]c2ccc(OC)cc12`, for which the TGI with 786-0 renal, with CAKI-1 renal, in the assay on EKVX NSCLC, in the assay on HS 578T breast, in the assay with M14 melanoma and in the assay with MALME-3M melanoma was greater than 100 µM throughout. Moreover, the TGI with MDA-N, in the assay on OVCAR-5 ovarian, in the assay on RXF 393 renal, in the assay with SN12C renal, in the assay with SNB-19 CNS and with UO-31 renal was greater than 100 µM each time.
Turning to `COC(=O)C1=C(C)NC(C)=C([N+](=O)[O-])C1c1cccc(NO)c1` (centres undefined), the TGI was greater than 87.9 µM with 786-0 renal; greater than 52.7 µM in the assay with CAKI-1 renal; greater than 61.5 µM in the assay with EKVX NSCLC; 38.6 µM in the assay with HS 578T breast; 12.3 µM in the assay with M14 melanoma; 22.9 µM in the assay with MALME-3M melanoma. The TGI in the assay with MDA-N was 4.14 µM; in the assay on OVCAR-5 ovarian, greater than 100 µM; with RXF 393 renal, greater than 85.4 µM; in the assay with SN12C renal it was greater than 30.8 µM; with SNB-19 CNS, greater than 100 µM; in the assay on UO-31 renal, 24.1 µM.
`O=C1c2ccccc2C(=O)N1c1ccc(OCCN2CCCCC2)cc1`: the TGI with 786-0 renal, in the assay with CAKI-1 renal, in the assay with EKVX NSCLC, with HS 578T breast, in the assay with M14 melanoma and in the assay on MALME-3M melanoma was greater than 100 µM throughout. The TGI in the assay with MDA-N, with OVCAR-5 ovarian, in the assay on RXF 393 renal, in the assay on SN12C renal and in the assay on SNB-19 CNS was greater than 100 µM each time.
As to `CC(Cc1ccc(O)c(O)c1)C(C)Cc1ccc(O)c(O)c1` (centres undefined), the TGI in the assay on 786-0 renal was 32.8 µM; with CAKI-1 renal, 25.4 µM; in the assay with EKVX NSCLC it was 58.8 µM; with HS 578T breast, 52.5 µM; in the assay with M14 melanoma, 34 µM; with MALME-3M melanoma it was 29.5 µM. Besides, the TGI is 26.3 µM in the assay on MDA-N; 50.7 µM with OVCAR-5 ovarian; 31.7 µM with RXF 393 renal; greater than 51.6 µM with SN12C renal; 50.9 µM in the assay on SNB-19 CNS; 23.1 µM in the assay with UO-31 renal.
With `O=C(O)CCC1(c2ccccc2)NC(=O)NC1=O` (centres undefined), the TGI with 786-0 renal, in the assay on CAKI-1 renal, in the assay on EKVX NSCLC, in the assay with HS 578T breast, in the assay on M14 melanoma and in the assay on MALME-3M melanoma was greater than 100 µM each time. For the same compound, the TGI with MDA-N, with OVCAR-5 ovarian, in the assay with RXF 393 renal, with SN12C renal and with SNB-19 CNS was greater than 100 µM throughout.
As to `CC12ON=C(c3ccccc3)N1C=CN1C(c3ccccc3)=NOC12` (centres undefined), the TGI in the assay on 786-0 renal, in the assay with CAKI-1 renal, in the assay with EKVX NSCLC, in the assay on HS 578T breast, in the assay on M14 melanoma and in the assay with MALME-3M melanoma was greater than 100 µM throughout. In addition, the TGI in the assay on MDA-N, in the assay with OVCAR-5 ovarian, with RXF 393 renal, in the assay on SNB-19 CNS and in the assay on UO-31 renal was greater than 100 µM in each case.
Take `CC(C)(C)C=C=C(C(C)(C)C)P(=O)(O)O`: the TGI with 786-0 renal, in the assay with CAKI-1 renal, with EKVX NSCLC, in the assay with HS 578T breast, in the assay with M14 melanoma and in the assay with MALME-3M melanoma was greater than 100 µM each time. For the same compound, the TGI in the assay on MDA-N, with OVCAR-5 ovarian, in the assay on RXF 393 renal, in the assay with SN12C renal and in the assay with SNB-19 CNS was greater than 100 µM in each case.

(Values after PubChem BioAssay (NCI).)
